Laboratory results: ChEMBL document CHEMBL1132058, “Potent inhibitors of protein farnesyltransferase: heteroarenes as cysteine replacements” (Bioorg Med Chem Lett, 1999)

Columns and labels:
[1] = target: Protein farnesyltransferase (Homo sapiens, UniProt P49354+P49356); assay: Inhibitory activity against farnesyltransferase (FT) using SPA assay; type: protein-complex assay
[2] = system: NIH3T3; assay: (§1) Inhibition of H-ras processing in subconfluent H-Ras-transformed NIH3T3 cells; type: functional, Mus musculus; set-up: concentration or dose not given beside the values
[3] = system: NIH3T3; assay: as §1; type: functional, Mus musculus
[4] = system: NIH3T3; assay: as §1; type: functional, cell-based; conditions: Mus musculus
[5] = system: NIH3T3; assay: Inhibition of H-ras processing in subconfluent H-Ras-transformed NIH3T3 cells at 1 uM; type: functional; conditions: Mus musculus
[6] = Tmax value in dog after oral administration at a dose of 5 mg/kg; type: ADME, organism-based, Canis lupus familiaris; set-up: dose 5 mg/kg, route oral; conditions: in vivo
[7] = Half life period in rat after IV administration at a dose of 10 mg/kg; type: ADME, organism-based; set-up: dose 10 mg/kg, route intravenous; conditions: in vivo
[8] = Tmax value in rat after oral administration at a dose of 10 mg/kg; type: ADME, organism-based; set-up: dose 10 mg/kg, route oral; conditions: in vivo
[9] = Bioavailability in dog after oral administration at a dose of 5 mg/kg; type: ADME, organism-based, Canis lupus familiaris; conditions: in vivo
[10] = AUC value in rat after IV administration at a dose of 10 mg/kg; type: ADME, organism-based; set-up: dose 10 mg/kg, route intravenous; conditions: plasma
[11] = AUC value in rat after oral administration at a dose of 10 mg/kg; type: ADME, organism-based; set-up: dose 10 mg/kg, route oral; conditions: plasma
[12] = Cmax value in dog after oral administration at a dose of 5 mg/kg; type: ADME, organism-based, Canis lupus familiaris; set-up: dose 5 mg/kg, route oral; conditions: in vivo
[13] = AUC value in dog after oral administration at a dose of 5 mg/kg; type: ADME, organism-based, Canis lupus familiaris; set-up: dose 5 mg/kg, route oral; conditions: plasma
[14] = Half life period in dog after IV administration at a dose of 5 mg/kg; type: ADME, organism-based, Canis lupus familiaris; set-up: dose 5 mg/kg, route intravenous; conditions: in vivo
[15] = AUC value in dog after IV administration at a dose of 5 mg/kg; type: ADME, organism-based, Canis lupus familiaris; set-up: dose 5 mg/kg, route intravenous; conditions: plasma
[16] = Cmax value in rat after oral administration at a dose of 10 mg/kg; type: ADME, organism-based; set-up: dose 10 mg/kg, route oral; conditions: in vivo
[17] = Bioavailability in rat after oral administration at a dose of 10 mg/kg; type: ADME, organism-based; conditions: in vivo

Compound	IC50 [1] [nM]	Inhibition [2] [%]	other results
CSCC[C@H](NC(=O)c1ccc(/C(C#N)=C/c2cccnc2)cc1-c1ccccc1C)C(=O)O	0.59	57	
CSCC[C@H](NC(=O)c1ccc(/C=C/n2ccnc2)cc1-c1ccccc1C)C(=O)O	0.2		EC50 [4]: > 1000 nM
CSCC[C@H](NC(=O)c1ccc(CCn2ccnc2)cc1-c1ccccc1C)C(=O)O	0.21		EC50 [4]: > 1000 nM
CSCC[C@H](NC(=O)c1ccc(/C=C/c2cnccn2)cc1-c1ccccc1C)C(=O)O	57		
CSCC[C@H](NC(=O)c1ccc(/C(=C\c2cccnc2)C(=O)OC(C)(C)C)cc1-c1ccccc1C)C(=O)O	15	35	
CSCC[C@H](NC(=O)c1ccc(/C=C/c2cnccc2C(O)(c2ccccc2)c2ccccc2)cc1-c1ccccc1C)C(=O)O	0.66		Inhibition [3]: 63%
CSCC[C@H](NC(=O)c1ccc(C#Cc2cncnc2)cc1-c1ccccc1C)C(=O)O	140		
CSCC[C@H](NC(=O)c1ccc(/C=C/c2cncs2)cc1-c1ccccc1C)C(=O)O	2.4		EC50 [4]: > 1000 nM
CSCC[C@H](NC(=O)c1ccc(CCc2c[nH]cn2)cc1-c1ccccc1C)C(=O)O	0.15		EC50 [4]: > 1000 nM
CSCC[C@H](NC(=O)c1ccc(/C=C/c2cnccc2C2(O)CCCCC2)cc1-c1ccccc1C)C(=O)O	0.81	74	
CSCC[C@H](NC(=O)c1ccc(/C(C#N)=C\c2cccnc2)cc1-c1ccccc1C)C(=O)O	3.6	60	
CSCC[C@H](NC(=O)c1ccc(/C=C/c2cnccc2OCc2cc(F)cc(F)c2)cc1-c1ccccc1C)C(=O)O	0.3		
CSCC[C@H](NC(=O)c1ccc(/C(=C/c2cccnc2)C(=O)OC(C)(C)C)cc1-c1ccccc1C)C(=O)O	0.91	80	
CSCC[C@H](NC(=O)c1ccc(COc2cccnc2)cc1-c1ccccc1C)C(=O)O	0.4		
CSCC[C@H](NC(=O)c1ccc(/C=C/c2cnccc2C(O)[C@]23C[C@H]4C[C@H](C[C@H](C4)C2)C3)cc1-c1ccccc1C)C(=O)O (stereo partly specified)	0.37	61	
CSCC[C@H](NC(=O)c1ccc(/C=C/c2c[nH]cn2)cc1-c1ccccc1C)C(=O)O	0.63		EC50 [4]: > 1000 nM
CSCC[C@H](NC(=O)c1ccc(C#Cc2cccnc2)cc1-c1ccccc1C)C(=O)O	2.7		EC50 [4]: 1000 nM
CSCC[C@H](NC(=O)c1ccc(/C=C/c2cnccc2C(O)C2CCCCC2)cc1-c1ccccc1C)C(=O)O (stereo partly specified)	0.54	63	
CSCC[C@H](NC(=O)c1ccc(CCc2cccnc2)cc1-c1ccccc1C)C(=O)O	2.1		
CSCC[C@H](NC(=O)c1ccc(/C=C/c2cnccc2C(=O)[C@]23C[C@H]4C[C@H](C[C@H](C4)C2)C3)cc1-c1ccccc1C)C(=O)O	0.12	74	
CSCC[C@H](NC(=O)c1ccc(NC[C@@H](N)CS)cc1-c1ccccc1)C(=O)O			EC50 [4]: 1000 nM

Second part, led by results:

IC50 [1] [nM]	Compound	Inhibition [2] [%]	other results
2.9	COc1ccncc1/C=C/c1ccc(C(=O)N[C@@H](CCSC)C(=O)O)c(-c2ccccc2C)c1	66	
0.58	CSCC[C@H](NC(=O)c1ccc(/C=C/c2cnccc2C(O)c2ccccc2)cc1-c1ccccc1C)C(=O)O (stereo partly specified)		Inhibition [3]: 67%
16	CSCC[C@H](NC(=O)c1ccc(/C=C/c2cnc3ccccc3c2)cc1-c1ccccc1C)C(=O)O		EC50 [4]: > 1000 nM
0.29	CSCC[C@H](NC(=O)c1ccc(/C=C/c2cnccc2O)cc1-c1ccccc1C)C(=O)O	75	
25	CSCC[C@H](NC(=O)c1ccc(/C=C/c2cncnc2)cc1-c1ccccc1C)C(=O)O		
26	CSCC[C@H](NC(=O)c1ccc(/C=C/c2ccc(Oc3ccccc3)nc2)cc1-c1ccccc1C)C(=O)O		
0.92	CSCC[C@H](NC(=O)c1ccc(/C=C/c2cnccc2C(=O)c2ccccc2)cc1-c1ccccc1C)C(=O)O		EC50 [4]: 1000 nM
0.8	CSCC[C@H](NC(=O)c1ccc(/C=C/c2cncc3ccccc23)cc1-c1ccccc1C)C(=O)O		inhibition at 1 µM [5]: 64%
1.4	CCCOc1ccncc1/C=C/c1ccc(C(=O)N[C@@H](CCSC)C(=O)O)c(-c2ccccc2C)c1	49	
4.7	CSCC[C@H](NC(=O)c1ccc(/C=C/c2cncc(Cc3ccccc3)c2)cc1-c1ccccc1C)C(=O)O		EC50 [4]: > 1000 nM
0.61	CSCC[C@H](NC(=O)c1ccc(/C=C/c2cccnc2)cc1-c1ccccc1C)C(=O)O		Tmax [6]: 22.8 min; half-life [7]: 129 min; Tmax [8]: 19.8 min; bioavailability [9]: 24.5%; AUC [10]: 6.66 µg·h/mL; AUC [11]: 0.87 µg·h/mL; Cmax [12]: 2.83 µg/mL; Inhibition [3]: 79%; AUC [13]: 2.56 µg·h/mL; half-life [14]: 33 min; AUC [15]: 10.5 µg·h/mL; Cmax [16]: 0.321 µg/mL; bioavailability [17]: 23%
12	CSCC[C@H](NC(=O)c1ccc(/C=C/c2cncc(-c3ccccc3)c2)cc1-c1ccccc1C)C(=O)O		
0.29	CSCC[C@H](NC(=O)c1ccc(/C=C/c2cnccc2Cl)cc1-c1ccccc1C)C(=O)O	60	
